Results taken from patent US12501864B2 (priority 2020, dated 2025).
Structures can show the parent of a compound that is named as a salt.

Conditions: in vivo

## O=C1OC2(c3ccc(O)cc3Oc3cc(O)ccc32)c2ccccc21 [Fluorescein, fluorescein disodium salt]
  distribution by infection level: greater in trees with lower infection levels compared to trees with high infection levels
  distribution in fruits vs leaves: higher in olive fruits than leaves
  distribution throughout the tree: distributed evenly throughout the tree horizontally and vertically to all the sectors measured
